According to PubChem BioAssay AID2060886 (Molecular Pharmacology Branch, DTP, NCI, 2025):

Test system: 653999-131-R-J2-PDC complex spheroids, growth inhibition
Assay: Anticancer human tumor 653999-131-R-J2-PDC patient-derived lung adenocarcinoma cell line growth inhibition [RAS]
Conditions: for viability, T/C: stronger effect = lower value
Procedure, shortened: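 Agents were tested in combination matrices in half-log decrements from a top concentration at or near clinical Cmax (10 microM if undetermined). Targets were multi-cell spheroids of tumour lines plus HUVEC and MSC stromal cells.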

[1] = compound alone, run of 09/09/2024
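Also: spheroids exposed to the agents for seven days before the readout.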

SMILES: C=CC(=O)N1CCN(c2nc(OCC3CCCN3C)nc3c(F)c(-c4nc(N)cc(C)c4C(F)(F)F)c(Cl)cc23)C(C)C1 (stereo unspecified)
- viability, T/C (compound 0.0316 µM): 107% [middle of 12 runs]
- viability, T/C (compound 0.316 µM): 107% [middle of 12 runs]
- IC50 [1]: > 1000 nM
- IC50 (curve of compound): > 1000 nM

SMILES: C#Cc1c(F)ccc2cc(O)cc(-c3ncc4c(N5CC6CCC(C5)N6)nc(OCC56CCCN5CC(F)C6)nc4c3F)c12 (stereo unspecified)
- viability, T/C (compound 0.0316 µM): 99% [middle of 8 runs]
- viability, T/C (compound 0.1 µM): 89.6% [middle of 8 runs]
- viability, T/C (compound 0.316 µM): 71.2% [middle of 8 runs]
- viability, T/C (compound 1 µM): 58.1% [middle of 8 runs]
- viability, T/C (compound 3.16 µM): 43.8% [middle of 8 runs]
- viability, T/C (compound 10 µM): 31.8% [middle of 8 runs]
- IC50 [1]: 1.88 µM [middle of 8 runs]
